Assay results: patent US20240108006A1, “PESTICIDALLY ACTIVE HETEROAROMATIC COMPOUNDS” (SYNGENTA CROP PROTECTION AG, priority 2021, published 2024)

Legend:
Type in all cases: in vivo
[1] = tested on: Myzus persicae; experiment: Example B7: Myzus persicae (green peach aphid), intrinsic activity, sucrose solution 24-well; settings: 120 h, application rate of 12.5 ppm, 5 days after infestation, read-out: control (mortality)
Text: Example B7: Myzus persicae (Green Peach Aphid). Intrinsic Activity
Test compounds prepared from 10,000 ppm DMSO stock solutions were applied by pipette into 24-well microtiter plates and mixed with sucrose solution. The plates were closed with a stretched Parafilm. A plastic stencil with 24 holes was placed onto the plate and infested pea seedlings were placed directly on the Parafilm. The infested plate was closed with a gel blotting paper and another plastic stencil and then turned upside down. The samples were assessed for mortality 5 days after infestation.
The following compounds gave an effect of at least 80% control at an application rate of 12.5 ppm: […]

[2] = tested on: Spodoptera littoralis; experiment: Example B9: Spodoptera littoralis (Egyptian cotton leaf worm), cotton leaf discs, L1 larvae; settings: foliar, 72 h, application rate of 200 ppm, 3 days after infestation, read-out: control in at least one of the three categories (mortality, anti-feedant effect, or growth inhibition)
Outline: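 Cotton leaf discs on agar sprayed with aqueous test solutions from 10,000 ppm DMSO stocks, dried, then infested with five L1 larvae. Mortality, anti-feeding and growth inhibition scored against untreated samples 3 days after infestation.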

[3] = tested on: Diabrotica balteata; experiment: Example B2: Diabrotica balteata (corn root worm), maize sprouts, L2 larvae; settings: 96 h, application rate of 200 ppm, 4 days after infestation, read-out: control in at least one of the two categories (mortality or growth inhibition)
Method: Example B2: Diabrotica balteata (Corn Root Worm)
Maize sprouts placed onto an agar layer in 24-well microtiter plates were treated with aqueous test solutions prepared from 10,000 ppm DMSO stock solutions by spraying. After drying, the plates were infested with L2 larvae (6 to 10 per well). The samples were assessed for mortality and growth inhibition in comparison to untreated samples 4 days after infestation.
The following compounds gave an effect of at least 80% control in at least one of the two categories (mortality or growth inhibition) at an application rate of 200 ppm: […]

[4] = tested on: Chilo suppressalis; experiment: Example B1: Chilo suppressalis (striped rice stemborer), artificial diet, L2 larvae; settings: 144 h, application rate of 200 ppm, 6 days after infestation, read-out: control in at least one of the three categories (mortality, anti-feedant effect, or growth inhibition)
Outline: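 Artificial diet was treated with aqueous test solutions made from 10,000 ppm DMSO stocks, dried, then infested with L2 larvae (6-8 per well). Mortality, anti-feeding effect and growth inhibition were scored against untreated samples 6 days after infestation, and control was counted when any category exceeded untreated.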

[5] = tested on: Plutella xylostella; experiment: Example B8: Plutella xylostella (diamond back moth), artificial diet 24-well, eggs; settings: 192 h, application rate of 200 ppm, 8 days after infestation, read-out: effect in at least one of the two categories (mortality or growth inhibition)
Outline: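 Artificial diet in 24-well plates treated with aqueous dilutions of DMSO stock (10,000 ppm stock) and dried, then infested with Plutella eggs. Mortality and growth inhibition scored versus untreated samples 8 days after infestation.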

C[C@H](NC(=O)Nc1cnc(C(F)(F)F)cc1Cl)c1ncnn1-c1ccc(C#N)cn1 [Example P257, 1-[4-chloro-6-(trifluoromethyl)-3-pyridyl]-3-[(1S)-1-[2-(5-cyano-2-pyridyl)-1,2,4-triazol-3-yl]ethyl]urea]
≥ 80%: mortality at 12.5 ppm [1] | percent control (mortality, anti-feedant effect or growth inhibition) at 200 ppm [2] | percent control (mortality or growth inhibition) at 200 ppm [3] | percent control (mortality, anti-feedant effect or growth inhibition) at 200 ppm [4] | percent effect (mortality or growth inhibition) at 200 ppm [5]

C[C@H](NC(=O)Nc1cc(OC(F)(F)F)c(Cl)cc1F)c1ncnn1-c1ncccn1 [Example P214, 1-[4-chloro-2-fluoro-5-(trifluoromethoxy)phenyl]-3-[(1S)-1-(2-pyrimidin-2-yl-1,2,4-triazol-3-yl)ethyl]urea]
≥ 80%: mortality at 12.5 ppm [1] | percent control (mortality, anti-feedant effect or growth inhibition) at 200 ppm [2] | percent control (mortality or growth inhibition) at 200 ppm [3] | percent control (mortality, anti-feedant effect or growth inhibition) at 200 ppm [4] | percent effect (mortality or growth inhibition) at 200 ppm [5]

C[C@H](NC(=O)N1CCc2cc(C(F)(F)F)ccc21)c1ncnn1-c1ncccn1 [Example P57, N-[(1S)-1-(2-pyrimidin-2-yl-1,2,4-triazol-3-yl)ethyl]-5-(trifluoromethyl)indoline-1-carboxamide]
≥ 80%: mortality at 12.5 ppm [1] | percent control (mortality, anti-feedant effect or growth inhibition) at 200 ppm [2] | percent control (mortality or growth inhibition) at 200 ppm [3] | percent effect (mortality or growth inhibition) at 200 ppm [5]

C[C@H](NC(=O)Nc1cc(C(F)(F)F)c(Cl)cc1Br)c1ncnn1-c1ncccn1 [Example P48, 1-[2-bromo-4-chloro-5-(trifluoromethyl)phenyl]-3-[(1S)-1-(2-pyrimidin-2-yl-1,2,4-triazol-3-yl)ethyl]urea]
≥ 80%: mortality at 12.5 ppm [1] | percent control (mortality, anti-feedant effect or growth inhibition) at 200 ppm [2] | percent control (mortality or growth inhibition) at 200 ppm [3] | percent control (mortality, anti-feedant effect or growth inhibition) at 200 ppm [4] | percent effect (mortality or growth inhibition) at 200 ppm [5]

C[C@H](NC(=O)Nc1ccc(Cl)c(OC(F)(F)C(F)F)c1)c1ncnn1-c1ncccn1 [Example P35, 1-[4-chloro-3-(1,1,2,2-tetrafluoroethoxy)phenyl]-3-[(1S)-1-(2-pyrimidin-2-yl-1,2,4-triazol-3-yl)ethyl]urea]
≥ 80%: mortality at 12.5 ppm [1] | percent control (mortality, anti-feedant effect or growth inhibition) at 200 ppm [2] | percent control (mortality or growth inhibition) at 200 ppm [3] | percent control (mortality, anti-feedant effect or growth inhibition) at 200 ppm [4] | percent effect (mortality or growth inhibition) at 200 ppm [5]

C[C@H](NC(=O)Nc1cc(C(F)(F)F)c(Cl)cc1Cl)c1ncnn1-c1ncccn1 [Example P178, 1-[2,4-dichloro-5-(trifluoromethyl)phenyl]-3-[(1S)-1-(2-pyrimidin-2-yl-1,2,4-triazol-3-yl)ethyl]urea]
≥ 80%: mortality at 12.5 ppm [1] | percent control (mortality, anti-feedant effect or growth inhibition) at 200 ppm [2] | percent control (mortality or growth inhibition) at 200 ppm [3] | percent control (mortality, anti-feedant effect or growth inhibition) at 200 ppm [4] | percent effect (mortality or growth inhibition) at 200 ppm [5]

CC(C)Oc1cc(NC(=O)N[C@@H](C)c2ncnn2-c2ncccn2)c(Cl)cc1Cl [Example P236, 1-(2,4-dichloro-5-isopropoxy-phenyl)-3-[(1S)-1-(2-pyrimidin-2-yl-1,2,4-triazol-3-yl)ethyl]urea]
≥ 80%: mortality at 12.5 ppm [1] | percent control (mortality, anti-feedant effect or growth inhibition) at 200 ppm [2] | percent control (mortality or growth inhibition) at 200 ppm [3] | percent control (mortality, anti-feedant effect or growth inhibition) at 200 ppm [4] | percent effect (mortality or growth inhibition) at 200 ppm [5]

C[C@H](NC(=O)N(C)c1ccc(Cl)cc1Cl)c1ncnn1-c1ncccn1 [Example P114, 1-(2,4-dichlorophenyl)-1-methyl-3-[(1S)-1-(2-pyrimidin-2-yl-1,2,4-triazol-3-yl)ethyl]urea]
≥ 80%: percent control (mortality, anti-feedant effect or growth inhibition) at 200 ppm [2] | percent control (mortality or growth inhibition) at 200 ppm [3] | percent control (mortality, anti-feedant effect or growth inhibition) at 200 ppm [4] | percent effect (mortality or growth inhibition) at 200 ppm [5]

C[C@H](NC(=O)Nc1cc(OC(F)(F)C(F)C(F)(F)F)c(Cl)cc1Cl)c1ncnn1-c1ncccn1 (stereo partly drawn) [Example P223, 1-[2,4-dichloro-5-(1,1,2,3,3,3-hexafluoropropoxy)phenyl]-3-[(1S)-1-(2-pyrimidin-2-yl-1,2,4-triazol-3-yl)ethyl]urea]
≥ 80%: percent control (mortality, anti-feedant effect or growth inhibition) at 200 ppm [2] | percent control (mortality or growth inhibition) at 200 ppm [3] | percent control (mortality, anti-feedant effect or growth inhibition) at 200 ppm [4] | percent effect (mortality or growth inhibition) at 200 ppm [5]

C[C@H](NC(=O)Nc1cc(C(F)(F)F)ccc1Cl)c1ncnn1-c1ncccn1 [Example P14, 1-[2-chloro-5-(trifluoromethyl)phenyl]-3-[(1S)-1-(2-pyrimidin-2-yl-1,2,4-triazol-3-yl)ethyl]urea]
≥ 80%: percent control (mortality, anti-feedant effect or growth inhibition) at 200 ppm [2] | percent control (mortality or growth inhibition) at 200 ppm [3] | percent control (mortality, anti-feedant effect or growth inhibition) at 200 ppm [4] | percent effect (mortality or growth inhibition) at 200 ppm [5]

C[C@H](NC(=O)Nc1cc(C(F)(F)F)c(Cl)cc1Br)c1ncnn1-c1cnccn1 [Example P279, 1-[2-bromo-4-chloro-5-(trifluoromethyl)phenyl]-3-[(1S)-1-(2-pyrazin-2-yl-1,2,4-triazol-3-yl)ethyl]urea]
≥ 80%: percent control (mortality, anti-feedant effect or growth inhibition) at 200 ppm [2] | percent control (mortality or growth inhibition) at 200 ppm [3] | percent control (mortality, anti-feedant effect or growth inhibition) at 200 ppm [4] | percent effect (mortality or growth inhibition) at 200 ppm [5]

C[C@H](NC(=O)Nc1ccc(C(F)(F)F)cc1C(F)(F)F)c1ncnn1-c1ccc(C#N)cn1 [Example P13, 1-[2,4-bis(trifluoromethyl)phenyl]-3-[(1S)-1-[2-(5-cyano-2-pyridyl)-1,2,4-triazol-3-yl]ethyl]urea]
≥ 80%: percent control (mortality, anti-feedant effect or growth inhibition) at 200 ppm [2] | percent control (mortality or growth inhibition) at 200 ppm [3] | percent control (mortality, anti-feedant effect or growth inhibition) at 200 ppm [4] | percent effect (mortality or growth inhibition) at 200 ppm [5]

CC(NC(=O)Nc1ccc(Br)cc1OC(F)F)c1nccnc1-n1nccn1 (stereo not shown) [Example P261, 1-[4-bromo-2-(difluoromethoxy)phenyl]-3-[1-[3-(triazol-2-yl)pyrazin-2-yl]ethyl]urea]
≥ 80%: percent control (mortality, anti-feedant effect or growth inhibition) at 200 ppm [2] | percent control (mortality or growth inhibition) at 200 ppm [3] | percent control (mortality, anti-feedant effect or growth inhibition) at 200 ppm [4] | percent effect (mortality or growth inhibition) at 200 ppm [5]
